According to US20230173090A1, “COMPOSITIONS AND METHODS FOR MODULATING DOPAMINE RECEPTOR ACTIVITY” (The Regents of the University of California, priority 2020, published 2023):

What was measured:
D1R and D5R = assay: Open field test, bilateral dStr-infusion of SKF82958 in D1-Cre mice; format: in vivo
Protocol: FIGS. 21A-21K. […] (A) An infusion of SKF82958 directly to the dorsal striatum (dStr) activates D1R and D5R in various cell types of this brain area and could diffuse into other brain areas. (B) Time course of the effect of a bilateral dStr-infusion of SKF82958 (400 nL per hemisphere) on the locomotion of D1-Cre mice in an open field. (C) Average velocity in the last 10 minutes of the open field test. one-way ANOVA, F = 14.3, Bonferroni, ^∗∗p < 0.01, ^∗∗∗p < 0.001. n = 5 mice per condition. (D) Time to maximum locomotion with SKF82958 or MP-D1ago. unpaired two-sided t-test, ^∗∗∗∗p < 0.0001. n = 5 for SKF82958, n = 7 mice for MP-D1ago. (E) Example movement dynamics of a mouse treated with vehicle or 100 µg SKF82958. Shown for SKF82958-treated mice is the (F) average percent of the time in motion, (G) average initiations per second, (H) average movement bout duration, and (I) the average maximum movement bout velocity. […] Bonferroni, ^∗p < 0.05, ^∗∗p < 0.01. n = 5 mice. (J) Representative coronal brain slice from a mouse infused with SKF82958. grey bar = 1 mm. blue = DAPI staining. (K) Summary of cannula locations for individual mice.

D1R = molecular target: T1, D1R (Homo sapiens, UniProt P21728); assay: D1R-mediated GIRK channel activation assay in HEK293T cells (whole-cell electrophysiology); format: cell-based; settings: % of photocurrent in the absence of LE300
T1 construct: expressed in transfected cells; host or cells: HEK293T (A1, A2); HEK293 (A26)
T1 sequence (P21728 whole entry): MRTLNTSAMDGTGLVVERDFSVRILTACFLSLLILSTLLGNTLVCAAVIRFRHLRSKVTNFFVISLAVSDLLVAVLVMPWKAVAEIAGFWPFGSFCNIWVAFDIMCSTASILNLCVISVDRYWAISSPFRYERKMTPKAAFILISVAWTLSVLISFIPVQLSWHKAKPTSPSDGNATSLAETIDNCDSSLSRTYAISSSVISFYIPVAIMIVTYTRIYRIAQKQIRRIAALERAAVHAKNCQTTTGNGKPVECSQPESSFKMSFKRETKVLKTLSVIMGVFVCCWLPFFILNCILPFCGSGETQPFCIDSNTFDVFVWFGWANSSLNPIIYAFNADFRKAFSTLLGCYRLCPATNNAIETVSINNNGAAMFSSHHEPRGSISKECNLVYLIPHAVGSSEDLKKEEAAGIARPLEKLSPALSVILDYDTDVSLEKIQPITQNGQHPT
Protocol: All constructs were cloned into mammalian expression vectors. For the receptor mediated-GIRK activation assay, HEK293T cells were seeded onto 18 mm coverslips and transiently transfected overnight with Lipofectamine 2000 and the following constructs: a receptor, a variant of the membrane-anchor (M; 0.7 µg), GIRK1(F137S) (0.7 µg), and tdTomato (0.2 µg). […] D1R, D5R, or opto-D1R were cotransfected with Gαis13 (0.35 µg), D3R with GαoA (0.7 µg), and M1R or mGluR1 with Gαiq5. Transfected cells were used for electrophysiology, imaging, or flow cytometry experiments.
HEK293T cells were sparsely seeded and maintained in DMEM (Invitrogen) with 10% fetal bovine serum on poly-L-lysine-coated coverslips at 37° C. and 5% CO2. HEK293T cells were voltage clamped in whole-cell configuration 16-48 hours after transfection. […] GluK2 electrophysiology was performed in the presence of 0.3 mg/mL concanavalin A to prevent desensitization. […] Cells were voltage clamped to -60 or -80 mV using an Axopatch 200A (Molecular Devices) amplifier.
For all experiments, compounds were applied using a gravity-driven perfusion system and illumination was applied to the entire field of view using a Polychrome V monochromator (TILL Photonics) through a 20x objective (maximum 0.05 mW/mm^2 at 370 nm and 0.5 mW/mm^2 at 460 nm or 473 nm) or a DG4 (Sutter) through a 20x objective (maximum 0.06 mW/mm^2 at 370 nm and 0.6 mW/mm^2 at 445 nm). pClamp software was used for both data acquisition and control of illumination.
The selection criteria for electrophysiological experiments are that a cell (i) expresses the fluorescent protein transfection marker, and (ii) responds to agonist, indicating the presence of either receptor and GIRK or an LGIC. Cells were not excluded unless the recording was of poor quality (e.g., unstable baseline).
Data were analyzed using GraphPad Prism (GraphPad), Clampfit (Axon instruments), Origin (OriginLab), MATLAB, or ImageJ software. For dose-response curves, data were normalized to vehicle (0%) and DA (100%) and nonlinear regression analysis was performed using the sigmoidal dose-response function in GraphPad Prism. Statistical analyses were performed using GraphPad Prism. All values reported are mean ± S.E.M.
FIGS. 9A-9H. Functional properties of untethered P-D1ago. (A) Schematic representation of a D1R-mediated G protein-coupled inwardly rectifying potassium (GIRK) channel assay in HEK293T cells. Agonist-induced receptor activation results in the recruitment of a heterotrimeric G protein containing the chimeric Gα subunit (Gαis) followed by the release of Gβγ, which activates GIRK channels and enhances inward-current. […] (E) Schematic representation of a highly sensitive D1R-mediated cAMP accumulation assay in HEK293T cells. Agonist-induced D1R activation results in Gs/olfrecruitment followed by the binding of its Gα subunit to adenylate cyclase (AC), which enhances the conversion of ATP to cAMP. cAMP binds the bioluminescence resonance energy transfer 1 (BRET′)-based cAMP sensor CAMYEL^87, resulting in a conformational change in its Epac domain that increases the distance and decreases BRET^1 between the donor Renilla luciferase (Rluc) and the acceptor YFP. […] Optimization and characterization of the D1R MP

SMILES	duration of the movement bouts (D1R and D5R)	movement initiation (D1R and D5R)	percentage of the time in motion (D1R and D5R)	locomotion in an open field (D1R and D5R; 400 nL per hemisphere)	photoactivation of D1R by P-D1ago tethered to the M in the presence of LE300 (D1R)
C=CCN1CCc2c(cc(O)c(O)c2Cl)C(c2ccccc2)C1 (centres unmarked) [SKF82958]	increased	increased	increased the percentage of the time that the mice were in motion	enhanced locomotion	
CN1CCc2ccccc2Cc2[nH]c3ccccc3c2CC1 [LE300, reference compound]					3.3 ± 3.3%
